“And” between values parts separate entries of the source, which are not always exact repeats. Identical values can stand only once.
What was measured:
[1] = Pro-drug to active ratio in portal versus peripheral blood; assay type: in vivo; conditions: rat
Description: (§1) Calculation of Cmax, u, portal uses plasma Cmax, fraction of an oral dose absorbed (Fa) and measured unbound fraction in blood. For rodatristat, experimentally derived values were used for Fa determined in a rat 14C study (20%) and in vitro binding to human plasma (99.1%) and blood:plasma distribution (RB, 0.72). Walsky et al proposed a threshold where the ratio of Cmax, u, portal/Ki of <0.1 is associated with low risk. […] In the rat, the RE:R is ˜3-fold higher in portal blood compared to the periphery.

[2] = Stability in rat whole blood; assay type: in vitro ADME; conditions: 2 μM, 15 min
Procedure: (§2) The metabolic stability of RVT-1201 was measured in vitro in hepatocytes, liver microsomes, lung microsomes, intestinal S9, lung S9, liver S9 and whole blood. The major metabolite detected in incubations with human hepatocytes was KAR5417 (KRS-02). RVT-1201 was rapidly metabolized to form KAR5417, with <5% remaining after a 2 h incubation. In heat deactivated rat hepatocytes, <5% RVT-1201 remained after 2 h incubation in the same study. Therefore, RVT-1201 metabolism (and KAR5417 formation) are not dependent on oxidative or conjugative enzymatic processes. Formation of KAR5417 from RVT-1201 is a de-esterification process, which implicates an esterase or esterases as the major mechanism. The enzyme(s) responsible for RVT-1201 metabolism to form KAR5417 has not been identified but are considered to be carboxylesterase(s). In addition, RVT-1201 metabolism and KAR5417 formation were investigated in rat and human whole blood(XT184028).

[3] = Metabolic stability in human hepatocytes; assay type: in vitro ADME; conditions: 2 h incubation
Procedure: as §2

[4] = Intrinsic clearance in liver S9 fractions; assay type: in vitro ADME; conditions: human, liver S9 fraction
Procedure: as §2
However, in human whole blood incubations, no loss of RVT-1201 was observed. […] Therefore, metabolism of RVT-1201 was assigned to a cytosolic carboxylesterase (CES1) within the PBPK model. Although the enzyme responsible for RVT-1201 elimination and KAR5417 formation has not been identified, CES1 was selected to represent the enzymatic metabolism of RVT-1201 for this fit-for-purpose PBPK model.

[5] = Stability in heat deactivated rat hepatocytes; assay type: in vitro ADME; conditions: 2 h incubation
Procedure: as §2

[6] = Metabolic stability in liver preparations across species; assay type: in vitro ADME
Description: The metabolism of rodatristat ethyl is predominantly by esterase mediated hydrolysis of the ester pro-drug moiety to rodatristat in liver tissue preparations from human, rat, dog, and cynomolgus monkey, and intestinal and lung tissues from rat and human. Hydrolysis of rodatristat ethyl was also observed in rat blood, and to a much lesser extent in dog and human blood.

MATE1 = molecular target: T1, MATE1 (Homo sapiens, UniProt Q96FL8); assay: In vitro transporter substrate assessment; assay type: in vitro ADME
T1 sequence (Q96FL8 1-570): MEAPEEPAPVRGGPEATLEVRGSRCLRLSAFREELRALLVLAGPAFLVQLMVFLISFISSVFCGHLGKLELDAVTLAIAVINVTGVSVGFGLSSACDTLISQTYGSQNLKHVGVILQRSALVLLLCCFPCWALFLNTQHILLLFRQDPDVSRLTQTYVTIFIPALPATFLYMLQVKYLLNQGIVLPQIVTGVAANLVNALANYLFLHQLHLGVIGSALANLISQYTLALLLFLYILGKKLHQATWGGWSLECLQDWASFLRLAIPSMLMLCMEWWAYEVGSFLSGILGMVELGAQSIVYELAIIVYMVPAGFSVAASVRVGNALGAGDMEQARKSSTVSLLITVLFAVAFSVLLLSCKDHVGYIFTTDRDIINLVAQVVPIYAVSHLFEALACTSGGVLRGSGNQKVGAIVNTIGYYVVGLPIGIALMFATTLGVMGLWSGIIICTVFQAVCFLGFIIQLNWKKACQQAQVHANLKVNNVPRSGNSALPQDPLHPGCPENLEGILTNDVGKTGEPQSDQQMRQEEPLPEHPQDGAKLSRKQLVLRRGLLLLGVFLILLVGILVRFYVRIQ
Description: (§3) Consequently, the elimination of rodatristat into bile may be impacted by co-administration with agents that are BCRP inhibitors.

CYP2C8 = molecular target: T2, CYP2C8 (Homo sapiens, UniProt P10632); assay: Unbound hepatic portal vein Cmax versus Ki analysis (Walsky et al); design: from tissue; host or cells: pooled human liver microsomes (n=200 donors)
T2 sequence (P10632 1-490): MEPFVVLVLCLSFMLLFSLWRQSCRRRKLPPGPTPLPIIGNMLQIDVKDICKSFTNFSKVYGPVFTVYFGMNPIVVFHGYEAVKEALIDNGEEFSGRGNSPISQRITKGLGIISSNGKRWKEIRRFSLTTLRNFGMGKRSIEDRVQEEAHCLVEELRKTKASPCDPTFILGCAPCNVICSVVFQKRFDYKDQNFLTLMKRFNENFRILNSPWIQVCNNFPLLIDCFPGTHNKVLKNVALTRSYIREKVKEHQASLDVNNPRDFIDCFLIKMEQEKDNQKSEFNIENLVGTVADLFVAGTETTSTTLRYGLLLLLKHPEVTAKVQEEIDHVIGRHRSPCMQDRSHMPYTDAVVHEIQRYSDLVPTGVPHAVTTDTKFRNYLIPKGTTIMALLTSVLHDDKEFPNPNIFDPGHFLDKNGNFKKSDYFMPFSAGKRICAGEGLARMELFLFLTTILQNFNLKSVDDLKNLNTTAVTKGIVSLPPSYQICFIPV
Description: Walsky, et al^i evaluated criteria to assess the potential for approved drugs to elicit clinically-meaningful drug interactions via inhibition of 2C8. Following their evaluation of 209 compounds they opined that unbound hepatic portal vein concentration (Cmax, u, portal) compared to the in vitro Ki provides additional insight beyond peripheral Cmax (used for FDA criteria) as it reflects the unbound drug concentration entering the liver.
as §1

[7] = Passive permeability in Caco 2 and MDCK cell studies; assay type: in vitro ADME
Description: as §3

[8] = Blood:plasma distribution; assay type: in vitro ADME; conditions: whole blood; read-out: Blood:plasma distribution (RB)
Description: as §1

SMILES | RE:R ratio higher in portal blood compared to the periphery [1] [fold] | Loss in rat blood [2] | Remaining after incubation with human hepatocytes [3] [%] | microsomal CLint [4] [µL/min/mg] | Remaining after incubation in heat deactivated rat hepatocytes [5] [%] | Metabolic stability in liver preparations [6] | In vitro substrate? MATE1 (MATE1) | Cmax, u, portal/Ki (CYP2C8) | Passive permeability [7] | blood plasma ratio [8]
CCOC(=O)[C@@H]1CC2(CCN(c3cc(O[C@H](c4ccc(Cl)cc4-c4ccccc4)C(F)(F)F)nc(N)n3)CC2)CN1 [Rodatristat ethyl, (S)-ethyl 8-(2-amino-6-((R)-1-(5-chloro-[1,1′-biphenyl]-2-yl)-2,2,2-trifluoroethoxy)pyrimidin-4-yl)-2,8-diazaspiro[4.5]decane-3-carboxylate] | ~3 | Complete loss | < 5 | 20 | < 5 |  |  |  |  | 
Nc1nc(O[C@H](c2ccc(Cl)cc2-c2ccccc2)C(F)(F)F)cc(N2CCC3(CC2)CN[C@H](C(=O)O)C3)n1 [Rodatristat, (S)-8-(2-amino-6-((R)-1-(5-chloro-[1,1′-biphenyl]-2-yl)-2,2,2-trifluoroeth-oxy)pyrimidin-4-yl)-2,8-diazaspiro[4.5]decane-3-carboxylic acid] |  |  |  |  |  | metabolically stable | not an in vitro substrate and No | 0.128 and < 0.128 | very low passive permeability | 0.72

— patent publication US20230074252A1, “DOSAGES AND METHODS FOR TREATING PULMONARY ARTERIAL HYPERTENSION WITH RODATRISTAT” (Altavant Sciences GmbH, priority 2020, published 2023)
